From publication PMC5274652, “Antagonizing Retinoic Acid Receptors Increases Myeloid Cell Production by Cultured Human Hematopoietic Stem Cells” (Archivum Immunologiae et Therapiae Experimentalis, 2016)

Experiments:
human RARβ = target: T1, human RARβ (Homo sapiens, UniProt P10826); assay: Competition with [3H]-ATRA binding, nuclear extracts of Sf21 cells expressing RARβ; conditions: nuclear extracts of baculovirus-infected Sf21 cells, read-out: Binding affinity ED50, RARβ
T1 construct: made in house
T1 sequence (P10826 1-455): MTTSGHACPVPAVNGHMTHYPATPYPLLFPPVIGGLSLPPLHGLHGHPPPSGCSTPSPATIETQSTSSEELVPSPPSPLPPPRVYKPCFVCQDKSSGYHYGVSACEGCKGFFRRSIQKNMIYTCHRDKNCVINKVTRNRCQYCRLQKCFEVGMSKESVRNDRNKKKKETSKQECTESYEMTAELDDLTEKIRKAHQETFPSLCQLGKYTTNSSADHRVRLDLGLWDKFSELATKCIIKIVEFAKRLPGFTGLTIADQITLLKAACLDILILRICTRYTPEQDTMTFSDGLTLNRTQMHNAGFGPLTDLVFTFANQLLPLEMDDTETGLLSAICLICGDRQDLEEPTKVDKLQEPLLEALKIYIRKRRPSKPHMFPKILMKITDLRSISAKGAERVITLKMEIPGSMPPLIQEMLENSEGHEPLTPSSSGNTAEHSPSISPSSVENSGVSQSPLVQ

human RARγ = target: T2, human RARγ (Homo sapiens, UniProt P13631); assay: Competition with [3H]-ATRA binding, nuclear extracts of Sf21 cells expressing RARγ; conditions: nuclear extracts of baculovirus-infected Sf21 cells, read-out: Binding affinity ED50, RARγ
T2 construct: made in house
T2 sequence (P13631 1-454): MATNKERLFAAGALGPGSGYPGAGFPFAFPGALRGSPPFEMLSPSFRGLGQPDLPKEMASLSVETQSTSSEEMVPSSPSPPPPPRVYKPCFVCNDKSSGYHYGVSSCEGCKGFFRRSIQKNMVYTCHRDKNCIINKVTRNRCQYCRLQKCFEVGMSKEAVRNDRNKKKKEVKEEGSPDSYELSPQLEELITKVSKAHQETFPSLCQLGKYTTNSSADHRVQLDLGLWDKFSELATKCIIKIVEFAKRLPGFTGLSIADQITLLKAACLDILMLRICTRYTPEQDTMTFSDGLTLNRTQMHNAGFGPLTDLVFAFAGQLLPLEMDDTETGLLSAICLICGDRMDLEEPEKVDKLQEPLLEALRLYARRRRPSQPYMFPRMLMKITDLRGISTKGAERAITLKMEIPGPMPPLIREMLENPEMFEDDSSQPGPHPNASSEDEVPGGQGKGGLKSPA

[1] = tested on: lineage^−ve/CD133^+ve/CD34^+vehuHSC; assay: Ex vivo expansion of lineage-ve/CD133+ve/CD34+ve huHSC; assay type: cell-based, human
Text: The cells used were CD34^+ve cells purified from the blood of normal human adult donors and post-mobilization of stem cells to the blood. Cells obtained and purified in this manner are used routinely by the National Blood Service Stem Cell Laboratory in Birmingham for bone marrow transplantation. Ethics approval for the use of adult human blood-mobilized stem cells (CD34^+vehuHSC) was from the West Midlands Research Ethics Committee. Informed consent was obtained by the regional National Blood Service Stem Cell Laboratory in Birmingham. CD34^+ve cells were purified to 99 % CD34^+ve, 97 % CD133^+ve, >99 % lineage^−ve (n = 15) using an anti-CD34 monoclonal antibody, immunomagnetic beads, and a CliniMACS magnetic separator. Purified cells were plated at 5 × 10^5 cells/ml in microtiter wells in 200 μl of either RPMI-1640 medium (R and D Systems, Abingdon, UK) or HPGM^TM hematopoietic growth medium (Lonza, UK) containing either 10 % FBS or 10 % human serum, antibiotics (100 U/ml penicillin and 100 μg/ml streptomycin) and stem cell factor (SCF), interleukin (IL)-3, and granulocyte-colony stimulating factor (G-CSF) (all from R and D Systems Abingdon, UK) as stated in the results. Cultures were fed every 2–3 days (with fresh compound), split into microtiter wells, and then expanded into 2 ml Costar wells to maintain a cell density of between 2.5 and 10 × 10^5 cells/ml. Cells were grown at 37 °C in 5 % CO2. […]
The expression of differentiation markers at the cell surface was determined by flow cytometry. Differentiation of NB-4 and KG1 cells was measured by staining using the monoclonal antibodies CD11b-FITC and CD14-PE and appropriately labeled isotype controls (all from ImmunoTools, Friesoythe, Germany). Differentiation of human CD34^+ve cells was measured by triple-color staining using various cocktails of phycoerythrin-, fluorescein isothyocyanate-, and PerCP-monoclonal antibodies (from Becton–Dickinson, San Jose, CA, USA). […] Cells were analyzed using a FACSCalibur, and data analysis was performed using the CellQuest Pro software (Becton–Dickinson, San Jose, CA, USA).

CD34^+vehuHSCs = conditions: 100 nM, 2 weeks, 2 donors
Description: Assays for week-five cobblestone area forming cells (CAFC), long-term culture-initiating cells (LTC-IC), and colony-forming units (CFU) were performed at the Stem Cell Laboratory at the National Blood Service Stem Cell Laboratory using standard procedures and methods, as described by other workers (de […] and Ploemacher [2001]; Denning-Kendall et al. [1996]; Nicol et al. [1996]). CFU assays were performed using Methocult^TM GF H8444 (StemCell Technologies) and in 35 mm petri dishes. The presence of CAFC was scored as the presence of 12 or more closely associated and small cells that were embedded in the MS5 cell feeder layer and blind by an experienced reader. The nature of CFUs, as to colony-forming unit-granulocyte/erythroid/megakaryocyte/monocyte (CFU-GEMM), colony-forming unit-granulocyte/macrophage (CFU-GM), burst-forming unit-erythroid (BFU-E), and colony-forming unit-erythroid (CFU-E), was scored blind at the service by a person who routinely reads colony assays and is accredited. The nature of colonies was confirmed by sampling colonies and staining cytocentrifuged preparations of cells.

Structure (SMILES): CCc1ccc(C2=CC(C)(C)Sc3ccc(C#Cc4ccc(C(=O)O)cc4)cc32)cc1 [AGN194310]
- IC50 (human RARβ): 5 nM
- IC50 (human RARγ): 2 nM
- level of expansion of lineage−ve/CD133+ve/CD34+ve huHSC ([1]; 100 nM, day 30, HPGM, 10 % human serum, 100 ng/ml SCF, mean of seven donors, control ~eightfold): ~ 18 fold
- expansion of lineage−ve/CD133+ve/CD34+ve cells ([1]; all 15 donors, control 8–10-fold): around 20 fold
- BFU-E together with CFU-E as share of the total colony-forming units (CD34^+vehuHSCs; control 7 %): 41%
- CFU-GM as share of the total colony-forming units (CD34^+vehuHSCs; control 93 %): 56%
- CFU-GEMM as share of the total colony-forming units (CD34^+vehuHSCs; control not detected): 3%
